In PubChem BioAssay AID270 (DTP/NCI, 2004):
Where “and” joins values, the source holds several entries; their conditions need not be identical. Equal entries are not always repeated. Inconclusive results are not listed.

Test system: BDF1 mice, s.c. Lewis lung carcinoma, T/C %
Experiment: NCI In Vivo Anticancer Drug Screen. Data for tumor model Lewis Lung Carcinoma (subcutaneous) in B6D2F1 (BDF1) mice
Method in brief: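 Transplanted tumors grown in mice; compound vs vehicle dosing; endpoint survival or tumor size; ratio T/C.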

[1] = endpoint: mean tumor weight, dose: 40.0 mg/kg/injection, schedule: Q01DX011 (ip), vehicle: other, higher = larger tumour

What does the source list for `O=c1cc[nH]c(=O)o1`?
T/C (endpoint: median survival time, dose: 1.5 mg/kg/injection, schedule: Q01DX009 (ip), vehicle: water, higher = longer survival): 102 % of control; T/C (endpoint: median survival time, dose: 3.0 mg/kg/injection, schedule: Q01DX009 (ip), vehicle: water, higher = longer survival): 95 % of control; T/C (endpoint: median survival time, dose: 3.12 mg/kg/injection, schedule: Q01DX008 (ip), vehicle: water, higher = longer survival): 93 % of control; T/C (endpoint: median survival time, dose: 3.12 mg/kg/injection, schedule: Q01DX009 (ip), vehicle: water, higher = longer survival): 114 % of control; T/C (endpoint: median survival time, dose: 6.0 mg/kg/injection, schedule: Q01DX009 (ip), vehicle: water, higher = longer survival): 94 % of control; T/C (endpoint: median survival time, dose: 6.25 mg/kg/injection, schedule: Q01DX008 (ip), vehicle: water, higher = longer survival): 118 % of control; T/C (endpoint: median survival time, dose: 6.25 mg/kg/injection, schedule: Q01DX009 (ip), vehicle: water, higher = longer survival): 108 % of control and 243 % of control; T/C (endpoint: median survival time, dose: 12.0 mg/kg/injection, schedule: Q01DX009 (ip), vehicle: water, higher = longer survival): 106 % of control and 108 % of control; T/C (endpoint: median survival time, dose: 12.5 mg/kg/injection, schedule: Q01DX008 (ip), vehicle: water, higher = longer survival): 114 % of control; T/C (endpoint: median survival time, dose: 12.5 mg/kg/injection, schedule: Q01DX009 (ip), vehicle: water, higher = longer survival): 103 % of control and 243 % of control; T/C (endpoint: median survival time, dose: 24.0 mg/kg/injection, schedule: Q01DX009 (ip), vehicle: water, higher = longer survival): 98 % of control and 116 % of control; T/C (endpoint: median survival time, dose: 25.0 mg/kg/injection, schedule: Q01DX008 (ip), vehicle: water, higher = longer survival): 112 % of control; T/C (endpoint: median survival time, dose: 25.0 mg/kg/injection, schedule: Q01DX009 (ip), vehicle: water, higher = longer survival): 107 % of control

What does the source list for `CC(=O)CC(=O)Nc1ccc(Cl)cc1`?
T/C (endpoint: mean tumor weight, dose: 111.0 mg/kg/injection, schedule: Q01DX011 (ip), vehicle: other, higher = larger tumour): 151 % of control; T/C (endpoint: mean tumor weight, dose: 166.0 mg/kg/injection, schedule: Q01DX011 (ip), vehicle: other, higher = larger tumour): 156 % of control; T/C (endpoint: mean tumor weight, dose: 250.0 mg/kg/injection, schedule: Q01DX011 (ip), vehicle: other, higher = larger tumour): 121 % of control; T/C (endpoint: mean tumor weight, dose: 500.0 mg/kg/injection, schedule: Q01DX011 (ip), vehicle: other, higher = larger tumour): 64 % of control

Which results are given for `CSc1ncnc2c1ncn2C1CCCO1` (configuration not stated)?
T/C (endpoint: mean tumor weight, dose: 10.0 mg/kg/injection, schedule: Q01DX011 (ip), vehicle: other, higher = larger tumour): 103 % of control; T/C (endpoint: mean tumor weight, dose: 20.0 mg/kg/injection, schedule: Q01DX011 (ip), vehicle: other, higher = larger tumour): 53 % of control; T/C [1]: 68 % of control; T/C (endpoint: mean tumor weight, dose: 80.0 mg/kg/injection, schedule: Q01DX011 (ip), vehicle: other, higher = larger tumour): 86 % of control

For `O=[N+]([O-])c1ccc(/C=N\Nc2ccc([N+](=O)[O-])cn2)cc1`, which T/C (endpoint: median survival time, dose: 12.5 mg/kg/injection, schedule: Q01DX009 (ip), vehicle: Klucel (hydroxypropylcellulose) (HPC), higher = longer survival) is on record?
Its T/C is 88 % of control.

And the T/C (endpoint: median survival time, dose: 25.0 mg/kg/injection, schedule: Q01DX009 (ip), vehicle: Klucel (hydroxypropylcellulose) (HPC), higher = longer survival)?
Its T/C is 104 % of control.

Which T/C (endpoint: mean tumor weight, dose: 50.0 mg/kg/injection, schedule: Q01DX011 (ip), vehicle: saline, higher = larger tumour) does the source give for `C=CCCCCCCCCC(=O)O` here?
Its T/C is 92 % of control.

What about the T/C (endpoint: mean tumor weight, dose: 100.0 mg/kg/injection, schedule: Q01DX011 (ip), vehicle: saline, higher = larger tumour) of the same compound?
Its T/C is 91 % of control.

What about the T/C (endpoint: mean tumor weight, dose: 200.0 mg/kg/injection, schedule: Q01DX011 (ip), vehicle: saline, higher = larger tumour) of the same compound?
The T/C was 56 % of control.

And the T/C (endpoint: mean tumor weight, dose: 400.0 mg/kg/injection, schedule: Q01DX011 (ip), vehicle: saline, higher = larger tumour)?
Its T/C is 84 % of control.

`C/C=C(\C)C(=O)OC1C(C)C2(O)C(C=C(CO)CC3(O)C(=O)C(C)=CC32)C2C(C)(C)C12OC(=O)CCCCCCCCC` (configuration not stated) was tested. Which T/C (endpoint: median survival time, dose: 0.13 mg/kg/injection, schedule: Q01DX009 (ip), vehicle: saline + alcohol, higher = longer survival) did it give?
The T/C was 103 % of control.

And the T/C (endpoint: median survival time, dose: 0.25 mg/kg/injection, schedule: Q01DX009 (ip), vehicle: saline + alcohol, higher = longer survival)?
The T/C was 95 % of control.

And the T/C (endpoint: median survival time, dose: 0.5 mg/kg/injection, schedule: Q01DX009 (ip), vehicle: saline + alcohol, higher = longer survival)?
The T/C was 92 % of control.

Which T/C (endpoint: median survival time, dose: 0.12 mg/kg/injection, schedule: Q01DX009 (ip), vehicle: other, higher = longer survival) does the source give for `COC(=O)[C@@]12OC[C@]34[C@H]([C@@H](O)[C@@H]1O)[C@@]1(C)CC(=O)C(O)=C(C)[C@@H]1C[C@H]3OC(=O)[C@H](OC(=O)/C=C(\C)C(C)C)[C@@H]24` here?
Its T/C is 99 % of control.

What about the T/C (endpoint: median survival time, dose: 0.25 mg/kg/injection, schedule: Q01DX009 (ip), vehicle: other, higher = longer survival) of the same compound?
Its T/C is 91 % of control.

What about the T/C (endpoint: median survival time, dose: 0.5 mg/kg/injection, schedule: Q01DX009 (ip), vehicle: other, higher = longer survival) of the same compound?
Its T/C is 92 % of control.

And the T/C (endpoint: median survival time, dose: 1.0 mg/kg/injection, schedule: Q01DX009 (ip), vehicle: other, higher = longer survival)?
The T/C was 91 % of control.

And the T/C (endpoint: median survival time, dose: 2.0 mg/kg/injection, schedule: Q01DX009 (ip), vehicle: other, higher = longer survival)?
Its T/C is 87 % of control.

How did the T/C [1] turn out when `O=C1CN=C(c2ccc[nH]2)c2cc(Cl)ccc2N1` was run?
Its T/C is 112 % of control.

And the T/C (endpoint: mean tumor weight, dose: 120.0 mg/kg/injection, schedule: Q01DX011 (ip), vehicle: other, higher = larger tumour)?
The T/C was 73 % of control and 90 % of control.
